The record followed here is US9617258B2, “Pyrrolo[2,3-d]pyrimidinyl, pyrrolo[2,3-b]pyrazinyl and pyrrolo[2,3-d]pyridinyl acrylamides” (Pfizer Inc., priority 2013, dated 2017).

The nature of the series: Stability of JAK3 covalent inhibitors in human whole blood.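 Note: parent compound remaining over incubation time quantified by LC-MS/MS as peak area ratio against an internal standard, using pooled K2-EDTA blood.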 It is filed as in vitro ADME. Particulars: both sexes, whole blood, 37° C., read-out: Human blood stability t1/2.
Description: Stability of JAK3 Covalent Inhibitors in Rat and Human Whole Blood
Rat blood was collected from 3 male Sprague-Dawley rats (200-250 g, Charles River Laboratories) and pooled for each study. Human blood was collected from one male and one female healthy subjects at the Occupational Health & Wellness Center at Pfizer, Groton, CT and pooled for each study. Both rat and human blood was collected freshly into K2-EDTA tubes and kept on ice. An aliquot of the blood was transferred to microtubes and pre-warmed for 10 min at 37° C. using a heat block. […] An aliquot of the incubation mixture was removed at designated time points during the course of the incubation, mixed with an aliquot of acetonitrile containing an internal standard, vortexed and centrifuged. The resulting supernatants were removed and subjected to LC-MS/MS analyses to determine parent compound concentrations. Peak area ratios of the parent compound vs the internal standard were used to determine the % of parent compound remaining vs incubation time.
As for `C=CC(=O)N1CCC[C@](C)(Nc2ncnc3[nH]ccc23)C1` [Example 70, (S)-1-(3-((7H-Pyrrolo[2,3-d]pyrimidin-4-yl)amino)-3-methylpiperidin-1-yl)prop-2-en-1-one], the half-life at 1 μM worked out at 5.72 h.

Regarding `C=CC(=O)N1CCC(Nc2cnc3[nH]cc(C(=O)NCC(C)(C)C)c3n2)CC1` [Example 271, 2-[(1-acryloylpiperidin-4-yl)amino]-N-(2,2-dimethylpropyl)-5H-pyrrolo[2,3-b]pyrazine-7-carboxamide], the half-life at 1 μM is 2.28 h. With `C/C=C/C(=O)N1CCC[C@@H](Nc2ncnc3[nH]ccc23)C1` [Example 95, (2E)-1-[(3R)-3-(7H-pyrrolo[2,3-d]pyrimidin-4-ylamino)piperidin-1-yl]but-2-en-1-one] the figure was over 6 h; with `C=CC(=O)N1CCC[C@@H](Nc2ncnc3[nH]cc(-c4cnn(C)c4)c23)C1` [Example 28, 1-[(3R)-3-{[5-(1-methyl-1H-pyrazol-4-yl)-7H-pyrrolo[2,3-d]pyrimidin-4-yl]amino}piperidin-1-yl]prop-2-en-1-one], over 6 h; with `C=CC(=O)N1C[C@H](Nc2ncnc3[nH]cc(CCOC)c23)CC[C@@H]1C` [Example 13], 5.08 h. Next, `C=CC(=O)N1CC2CCN(c3cnc4[nH]cc(C(=O)NC(C)C)c4n3)C2C1` (centres unmarked) [Example 178, 2-(5-acryloylhexahydropyrrolo[3,4-b]pyrrol-1(2H)-yl)-N-(propan-2-yl)-5H-pyrrolo[2,3-b]pyrazine-7-carboxamide]: 2.38 h; `C=CC(=O)N1CCC(Nc2cnc3[nH]cc(C(=O)NCC(C)C)c3n2)CC1` [Example 272, 2-[(1-acryloylpiperidin-4-yl)amino]-N-(2-methylpropyl)-5H-pyrrolo[2,3-b]pyrazine-7-carboxamide]: 3.62 h. With `C=CC(=O)N1CC[C@H](Nc2cnc3[nH]cc(C(=O)NC(C)C)c3n2)C1` [Example 171, 2-{[(3S)-1-acryloylpyrrolidin-3-yl]amino}-N-(propan-2-yl)-5H -pyrrolo[2,3-b]pyrazine-7-carboxamide] the figure was over 6 h. On to `C=CC(=O)N1CC[C@H](C)[C@@H](Nc2ncnc3[nH]ccc23)C1` (racemic) [Example 50, 1-[(3R,4S)-4-methyl-3-(7H-pyrrolo[2,3-d]pyrimidin-4-ylamino)piperidin-1-yl]prop-2-en-1-one], for which the half-life at 1 μM was over 6 h. With `C=CC(=O)N1CCC(Nc2cnc3[nH]cc(-c4ccnc(C)c4)c3n2)CC1` [Example 201, 1-(4-{[7-(2-methylpyridin-4-yl)-5H-pyrrolo[2,3-b]pyrazin-2-yl]amino}piperidin-1-yl)prop-2-en-1-one] the figure was over 6 h; with `C=CC(=O)N1CCC[C@@H](Nc2ncnc3[nH]cc(-c4cccnc4)c23)C1` [Example 26, 1-[(3R)-3-{[5-(pyridin-3-yl)-7H-pyrrolo[2,3-d]pyrimidin-4-yl]amino}piperidin-1-yl]prop-2-en-1-one], over 6 h; with `C=CC(=O)N1CC[C@@H](F)[C@@H](Nc2ncnc3[nH]ccc23)C1` [Example 54, 1-((3S,4R)-3-((7H-pyrrolo[2,3-d]pyrimidin-4-yl)amino)-4-fluoropiperidin-1-yl)prop-2-en-1-one], 3.5 h. Next, `C=CC(=O)N1CCC(Nc2cnc3[nH]cc(C(=O)NC(C)(C)C)c3n2)C[C@@H]1C` (mixture of isomers) [Example 340]: over 6 h. Next, `C=CC(=O)N1CC[C@H](Nc2cnc3[nH]cc(C(=O)NC(C)C)c3n2)[C@H](OC)C1` [Example 317, 2-{[(3R,4S)-1-acryloyl-3-methoxypiperidin-4-yl]amino}-N-(propan-2-yl)-5H-pyrrolo[2,3-b]pyrazine-7-carboxamide]: over 6 h; `C=CC(=O)N1CCC[C@@H](Nc2ncnc3[nH]cc(-c4cncc(F)c4)c23)C1` [Example 23, 1-[(3R)-3-{[5-(5-fluoropyridin-3-yl)-7H-pyrrolo[2,3-d]pyrimidin-4-yl]amino}piperidin-1-yl]prop-2-en-1-one]: over 6 h; `C=CC(=O)N1CC[C@@H](C)[C@H](Nc2ncnc3[nH]ccc23)C1` [Example 112, 1-[(3S,4R)-4-Methyl-3-(7H-pyrrolo[2,3-d]pyrimidin-4-ylamino)piperidin-1-yl]prop-2-en-1-one]: 2.37 h. Consider `O=C(/C=C/C(F)(F)F)N1CC[C@@H]2CCN(c3ncnc4[nH]ccc34)[C@@H]2C1` [Example 81, (2E)-4,4,4-trifluoro-1-[(3aS,7aS)-1-(7H-pyrrolo[2,3-d]pyrimidin-4-yl)octahydro-6H-pyrrolo[2,3-c]pyridin-6-yl]but-2-en-1-one], for which the half-life at 1 μM is 0.282 h. Next, `C=CC(=O)N1CC[C@@H](Nc2cnc3[nH]cc(C(=O)NC(C)C)c3n2)[C@H](F)C1` [Example 291, 2-{[(3R,4R)-1-acryloyl-3-fluoropiperidin-4-yl]amino}-N-(propan-2-yl)-5H-pyrrolo[2,3-b]pyrazine-7-carboxamide]: 3.27 h; `C=C(C)C(=O)N1CC[C@@H]2CCN(c3ncnc4[nH]ccc34)[C@@H]2C1` [Example 85, 2-methyl-1-[(3aS,7aS)-1-(7H-pyrrolo[2,3-d]pyrimidin-4-yl)octahydro-6H-pyrrolo[2,3-c]pyridin-6-yl]prop-2-en-1-one]: over 6 h. Next, `C=CC(=O)N1CCC[C@@H](Nc2ncnc3[nH]cc(-c4cncc(OC)c4)c23)C1` [Example 24, 1-[(3R)-3-{[5-(5-methoxypyridin-3-yl)-7H-pyrrolo[2,3-d]pyrimidin-4-yl]amino}piperidin-1-yl]prop-2-en-1-one]: over 6 h; `C=CC(=O)N1[C@@H]2CC[C@H]1CN(c1cnc3[nH]cc(C(=O)NC(C)C)c3n1)C2` [Example 301, 2-[(1R,5S)-8-acryloyl-3,8-diazabicyclo[3.2.1]oct-3-yl]-N-(propan-2-yl)-5H-pyrrolo[2,3-b]pyrazine-7-carboxamide]: 1.4 h; `C#Cc1c[nH]c2ncnc(N3CC[C@H]4CCN(C(=O)C=C)C[C@H]43)c12` [Example 48, 1-[(3aS,7aS)-1-(5-ethynyl-7H-pyrrolo[2,3-d]pyrimidin-4-yl)octahydro-6H-pyrrolo[2,3-c]pyridin-6-yl]prop-2-en-1-one]: 2.5 h. Next, `C=CC(=O)N1CCC(Nc2cnc3[nH]cc(C(=O)N[C@H]4CC[C@@H](F)C4)c3n2)CC1` [Example 244, 2-[(1-acryloylpiperidin-4-yl)amino]-N-[(1S,3R)-3-fluorocyclopentyl]-5H-pyrrolo[2,3-b]pyrazine-7-carboxamide]: 4.73 h; `C=CC(=O)N1C[C@@H](F)C[C@@H](Nc2ncnc3[nH]ccc23)C1` [Example 15, 1-((3R,5S)-3-((7H-Pyrrolo[2,3-d]pyrimidin-4-yl)amino)-5-fluoropiperidin-1-yl)prop-2-en-1-one]: 3.87 h; `C=CC(=O)N1CCC(Nc2cnc3[nH]cc(C(=O)N[C@H](C)CC)c3n2)CC1` [Example 289, 2-[(1-acryloylpiperidin-4-yl)amino]-N-[(2R)-butan-2-yl]-5H-pyrrolo[2,3-b]pyrazine-7-carboxamide]: over 6 h. In the case of `C=CC(=O)N1CCN(c2cnc3[nH]cc(C(=O)NC(C)C)c3n2)C[C@@H]1CC` [Example 299, 2-[(3S)-4-acryloyl-3-ethylpiperazin-1-yl]-N-(propan-2-yl)-5H-pyrrolo[2,3-b]pyrazine-7-carboxamide], the half-life at 1 μM came out at 3.32 h. `C=CC(=O)N1C[C@H](C)C[C@@H](Nc2ncnc3[nH]ccc23)C1` [Example 74, 1-[(3R,5R)-3-Methyl-5-(7H-pyrrolo[2,3-d]pyrimidin-4-ylamino)piperidin-1-yl]prop-2-en-1-one]: the half-life at 1 μM turned out to be 1.72 h. Consider `C=CC(=O)N1CCC[C@@H](Nc2ncnc3[nH]cc(-c4ccc5c(cnn5C)c4)c23)C1` [Example 34, 1-[(3R)-3-{[5-(1-methyl-1H-indazol-5-yl)-7H-pyrrolo[2,3-d]pyrimidin-4-yl]amino}piperidin-1-yl]prop-2-en-1-one], for which the half-life at 1 μM is over 6 h. With `C=CC(=O)N1CC[C@@H](Nc2cnc3[nH]cc(C(=O)NC(C)C)c3n2)[C@@H](F)C1` [Example 320, 2-{[(3S,4R)-1-acryloyl-3-fluoropiperidin-4-yl]amino}-N-(propan-2-yl)-5H-pyrrolo[2,3-b]pyrazine-7-carboxamide] the figure was 3.17 h; with `C=CC(=O)N1CCC(Nc2cnc3[nH]cc(C(=O)N[C@@H]4CCC[C@@H]4F)c3n2)CC1` [Example 251, 2-[(1-acryloylpiperidin-4-yl)amino]-N-[(1R,2S)-2-fluorocyclopentyl]-5H-pyrrolo[2,3-b]pyrazine-7-carboxamide], 3.35 h. Turning to `C=CC(=O)N1CCC[C@H]1CNc1cnc2[nH]cc(C(=O)NC(C)C)c2n1` [Example 177, 2-({[(2S)-1-acryloylpyrrolidin-2-yl]methyl}amino)-N-(propan-2-yl)-5H-pyrrolo[2,3-b]pyrazine-7-carboxamide], the half-life at 1 μM is over 5.35 h. With `C=CC(=O)N1C[C@@H](O)C[C@@H](Nc2ncnc3[nH]ccc23)C1` [Example 17, 1-((3R,5S)-3-(7H-Pyrrolo[2,3-d]pyrimidin-4-ylamino)-5-hydroxypiperidin-1-yl)prop-2-en-1-one] the figure was over 5.17 h; with `C=C(C(=O)N1CC[C@@H]2CCN(c3ncnc4[nH]ccc34)[C@@H]2C1)C(F)(F)F` [Example 41, 1-((3aS,7aS)-1-(7H-Pyrrolo[2,3-d]pyrimidin-4-yl)hexahydro-1H-pyrrolo[2,3-c]pyridin-6(2H)-yl)-2-(trifluoromethyl)prop-2-en-1-one], 0.0467 h; with `C=CC(=O)N1CCC[C@@H](Nc2ncnc3[nH]cc(-c4ccc(N5CCOCC5)nc4)c23)C1` [Example 36, 1-[(3R)-3-({5-[6-(morpholin-4-yl)pyridin-3-yl]-7H-pyrrolo[2,3-d]pyrimidin-4-yl}amino)piperidin-1-yl]prop-2-en-1-one], over 6 h.

Take `C=CC(=O)N1CC[C@@H]2CCN(c3ncnc4[nH]ccc34)[C@@H]2C1` (single isomer, unassigned) [Example 8]: the half-life at 1 μM was 3.2 h.
